Measured values reported in ChEMBL document CHEMBL5360647, “A Systematic Survey of Reversibly Covalent Dipeptidyl Inhibitors of the SARS-CoV-2 Main Protease” (J Med Chem, 2023).

Each compound was assayed on SARS-CoV-2 (assay: Antiviral activity against SARS-CoV-2 USA-WA1/2020 infected in Vero E6 cells assessed as reduction in viral plaque formation incubated for 3 days by plaque reduction neutralization assay). Details: Severe acute respiratory syndrome coronavirus 2, USA-WA1/2020, Vero C1008, 72 h.
Format: functional, organism-based

SMILES | EC50
O=C[C@H](C[C@@H]1CCNC1=O)NC(=O)C1CC2(CCCCC2)CN1C(=O)OCc1ccccc1 (stereo partly drawn) | 370 nM
O=C[C@H](C[C@@H]1CCNC1=O)NC(=O)C1CC2(CCCC2)CN1C(=O)OCc1ccccc1 (stereo partly drawn) | 370 nM
CC1(C)[C@@H]2[C@@H](C(=O)N[C@H](C=O)C[C@@H]3CCNC3=O)N(C(=O)OCc3ccccc3)C[C@@H]21 | 1500 nM
